Test: Metabolic stability in human liver microsomes assessed as clearance at 1 uM measured upto 90 mins by LC-MS/MS analysis
Type: ADME, Microsome
Conditions: read-out: CLH

| Structure (SMILES) | CLint scaled at 1 µM [L/h/kg] |
| --- | --- |
| CC(C)n1cnnc1-c1cccc(NC(=O)c2cc3c(cc2F)CCC(=O)N3)c1 | 0.102 |
| CC(C)n1cnnc1-c1cccc(NC(=O)c2cc3c(cc2F)CCCC(=O)N3)c1 | 0.21 |
| CC(CO)n1cnnc1-c1cccc(NC(=O)c2cc3c(cc2F)CCCC(=O)N3)n1 (centres undefined) | 0.108 |
| O=C1CCCc2cc(F)c(C(=O)Nc3cccc(-c4nncn4C4CC4)n3)cc2N1 | 0.144 |
| CC(C)n1cnnc1-c1cccc(NC(=O)c2cc3c(cc2F)CCCC(=O)N3C)c1 | 0.468 |
| CC(C)n1cnnc1-c1cccc(NC(=O)c2cc3c(cc2F)CCC(=O)N3)n1 | 0.348 |

Test: Metabolic stability in human liver microsomes assessed as half life at 1 uM measured upto 90 mins by LC-MS/MS analysis
Type: ADME, Microsome
Conditions: not given

| Structure (SMILES) | half-life at 1 µM [h] |
| --- | --- |
| CC(C)n1cnnc1-c1cccc(NC(=O)c2cc3c(cc2F)CCC(=O)N3)c1 | 17.3 |
| CC(C)n1cnnc1-c1cccc(NC(=O)c2cc3c(cc2F)CCCC(=O)N3)c1 | 8.31 |
| CC(CO)n1cnnc1-c1cccc(NC(=O)c2cc3c(cc2F)CCCC(=O)N3)n1 (centres undefined) | 16.3 |
| O=C1CCCc2cc(F)c(C(=O)Nc3cccc(-c4nncn4C4CC4)n3)cc2N1 | 11.9 |
| CC(C)n1cnnc1-c1cccc(NC(=O)c2cc3c(cc2F)CCCC(=O)N3C)c1 | 3.72 |
| CC(C)n1cnnc1-c1cccc(NC(=O)c2cc3c(cc2F)CCC(=O)N3)n1 | 4.98 |

Test: Metabolic stability in rat liver microsomes assessed as clearance at 1 uM measured upto 90 mins by LC-MS/MS analysis
Type: ADME, Microsome
Conditions: read-out: CLH

| Structure (SMILES) | CLint scaled at 1 µM [L/h/kg] |
| --- | --- |
| CC(C)n1cnnc1-c1cccc(NC(=O)c2cc3c(cc2F)CCC(=O)N3)c1 | 0.45 |
| CC(C)n1cnnc1-c1cccc(NC(=O)c2cc3c(cc2F)CCCC(=O)N3)c1 | 0.372 |
| CC(CO)n1cnnc1-c1cccc(NC(=O)c2cc3c(cc2F)CCCC(=O)N3)n1 (centres undefined) | 0.57 |
| O=C1CCCc2cc(F)c(C(=O)Nc3cccc(-c4nncn4C4CC4)n3)cc2N1 | 0.282 |
| CC(C)n1cnnc1-c1cccc(NC(=O)c2cc3c(cc2F)CCCC(=O)N3C)c1 | 0.624 |
| CC(C)n1cnnc1-c1cccc(NC(=O)c2cc3c(cc2F)CCC(=O)N3)n1 | 0.798 |

Test: Apparent […] clearance in Sprague-Dawley rat at 1 mg/kg, iv measured upto 24 hrs by LC-MS/MS analysis
Type: ADME, organism-based
Conditions: in vivo

| Structure (SMILES) | CL/F [L/h/kg] |
| --- | --- |
| CC(C)n1cnnc1-c1cccc(NC(=O)c2cc3c(cc2F)CCC(=O)N3)c1 | 4.47 |
| CC(C)n1cnnc1-c1cccc(NC(=O)c2cc3c(cc2F)CCCC(=O)N3)c1 | 3.12 |
| CC(CO)n1cnnc1-c1cccc(NC(=O)c2cc3c(cc2F)CCCC(=O)N3)n1 (centres undefined) | 9.24 |
| O=C1CCCc2cc(F)c(C(=O)Nc3cccc(-c4nncn4C4CC4)n3)cc2N1 | 0.85 |
| CC(C)n1cnnc1-c1cccc(NC(=O)c2cc3c(cc2F)CCCC(=O)N3C)c1 | 2.21 |
| CC(C)n1cnnc1-c1cccc(NC(=O)c2cc3c(cc2F)CCC(=O)N3)n1 | 0.79 |

Test: Half life in Sprague-Dawley rat at 5 mg/kg, po measured upto 24 hrs by LC-MS/MS analysis
Type: ADME, organism-based
Conditions: in vivo

| Structure (SMILES) | half-life [h] |
| --- | --- |
| CC(C)n1cnnc1-c1cccc(NC(=O)c2cc3c(cc2F)CCC(=O)N3)c1 | 1.79 |
| CC(C)n1cnnc1-c1cccc(NC(=O)c2cc3c(cc2F)CCCC(=O)N3)c1 | 1.84 |
| O=C1CCCc2cc(F)c(C(=O)Nc3cccc(-c4nncn4C4CC4)n3)cc2N1 | 3.82 |
| CC(C)n1cnnc1-c1cccc(NC(=O)c2cc3c(cc2F)CCCC(=O)N3C)c1 | 1.44 |
| CC(C)n1cnnc1-c1cccc(NC(=O)c2cc3c(cc2F)CCC(=O)N3)n1 | 1.46 |

Test: Cmax in Sprague-Dawley rat at 1 mg/kg, iv measured upto 24 hrs by LC-MS/MS analysis
Type: ADME, organism-based
Parameters: dose 1 mg/kg, time < 24 hrs, route iv
Conditions: in vivo

| Structure (SMILES) | Cmax [µg/mL] |
| --- | --- |
| CC(C)n1cnnc1-c1cccc(NC(=O)c2cc3c(cc2F)CCC(=O)N3)c1 | 0.274 |
| CC(C)n1cnnc1-c1cccc(NC(=O)c2cc3c(cc2F)CCCC(=O)N3)c1 | 0.42 |
| CC(CO)n1cnnc1-c1cccc(NC(=O)c2cc3c(cc2F)CCCC(=O)N3)n1 (centres undefined) | 0.262 |
| O=C1CCCc2cc(F)c(C(=O)Nc3cccc(-c4nncn4C4CC4)n3)cc2N1 | 1.22 |
| CC(C)n1cnnc1-c1cccc(NC(=O)c2cc3c(cc2F)CCCC(=O)N3C)c1 | 0.758 |
| CC(C)n1cnnc1-c1cccc(NC(=O)c2cc3c(cc2F)CCC(=O)N3)n1 | 2.08 |

Test: AUClast in Sprague-Dawley rat at 5 mg/kg, po measured upto 24 hrs by LC-MS/MS analysis
Type: ADME, organism-based
Parameters: dose 5 mg/kg, time < 24 hrs, route po
Conditions: in vivo

| Structure (SMILES) | AUC(0-t) at 24 h [µg·h/mL] |
| --- | --- |
| CC(C)n1cnnc1-c1cccc(NC(=O)c2cc3c(cc2F)CCC(=O)N3)c1 | 0.157 |
| CC(C)n1cnnc1-c1cccc(NC(=O)c2cc3c(cc2F)CCCC(=O)N3)c1 | 0.252 |
| O=C1CCCc2cc(F)c(C(=O)Nc3cccc(-c4nncn4C4CC4)n3)cc2N1 | 2.72 |
| CC(C)n1cnnc1-c1cccc(NC(=O)c2cc3c(cc2F)CCCC(=O)N3C)c1 | 0.712 |
| CC(C)n1cnnc1-c1cccc(NC(=O)c2cc3c(cc2F)CCC(=O)N3)n1 | 0.534 |

Test: Cmax in Sprague-Dawley rat at 5 mg/kg, po measured upto 24 hrs by LC-MS/MS analysis
Type: ADME, organism-based
Parameters: dose 5 mg/kg, time < 24 hrs, route po
Conditions: in vivo

| Structure (SMILES) | Cmax [µg/mL] |
| --- | --- |
| CC(C)n1cnnc1-c1cccc(NC(=O)c2cc3c(cc2F)CCC(=O)N3)c1 | 0.058 |
| CC(C)n1cnnc1-c1cccc(NC(=O)c2cc3c(cc2F)CCCC(=O)N3)c1 | 0.109 |
| O=C1CCCc2cc(F)c(C(=O)Nc3cccc(-c4nncn4C4CC4)n3)cc2N1 | 0.829 |
| CC(C)n1cnnc1-c1cccc(NC(=O)c2cc3c(cc2F)CCCC(=O)N3C)c1 | 0.341 |
| CC(C)n1cnnc1-c1cccc(NC(=O)c2cc3c(cc2F)CCC(=O)N3)n1 | 0.334 |

Test: Half life in Sprague-Dawley rat at 1 mg/kg, iv measured upto 24 hrs by LC-MS/MS analysis
Type: ADME, organism-based
Conditions: in vivo

| Structure (SMILES) | half-life [h] |
| --- | --- |
| CC(C)n1cnnc1-c1cccc(NC(=O)c2cc3c(cc2F)CCC(=O)N3)c1 | 0.68 |
| CC(C)n1cnnc1-c1cccc(NC(=O)c2cc3c(cc2F)CCCC(=O)N3)c1 | 0.72 |
| CC(CO)n1cnnc1-c1cccc(NC(=O)c2cc3c(cc2F)CCCC(=O)N3)n1 (centres undefined) | 0.28 |
| O=C1CCCc2cc(F)c(C(=O)Nc3cccc(-c4nncn4C4CC4)n3)cc2N1 | 0.71 |
| CC(C)n1cnnc1-c1cccc(NC(=O)c2cc3c(cc2F)CCCC(=O)N3C)c1 | 0.8 |
| CC(C)n1cnnc1-c1cccc(NC(=O)c2cc3c(cc2F)CCC(=O)N3)n1 | 0.71 |

Test: Metabolic stability in rat liver microsomes assessed as half life at 1 uM measured upto 90 mins by LC-MS/MS analysis
Type: ADME, Microsome
Conditions: not given

| Structure (SMILES) | half-life at 1 µM [h] |
| --- | --- |
| CC(C)n1cnnc1-c1cccc(NC(=O)c2cc3c(cc2F)CCC(=O)N3)c1 | 5.49 |
| CC(C)n1cnnc1-c1cccc(NC(=O)c2cc3c(cc2F)CCCC(=O)N3)c1 | 6.69 |
| CC(CO)n1cnnc1-c1cccc(NC(=O)c2cc3c(cc2F)CCCC(=O)N3)n1 (centres undefined) | 4.37 |
| O=C1CCCc2cc(F)c(C(=O)Nc3cccc(-c4nncn4C4CC4)n3)cc2N1 | 8.87 |
| CC(C)n1cnnc1-c1cccc(NC(=O)c2cc3c(cc2F)CCCC(=O)N3C)c1 | 3.97 |
| CC(C)n1cnnc1-c1cccc(NC(=O)c2cc3c(cc2F)CCC(=O)N3)n1 | 3.12 |

Test: AUClast in Sprague-Dawley rat at 1 mg/kg, iv measured upto 24 hrs by LC-MS/MS analysis
Type: ADME, organism-based
Parameters: dose 1 mg/kg, time < 24 hrs, route iv
Conditions: in vivo

| Structure (SMILES) | AUC(0-t) at 24 h [µg·h/mL] |
| --- | --- |
| CC(C)n1cnnc1-c1cccc(NC(=O)c2cc3c(cc2F)CCC(=O)N3)c1 | 0.222 |
| CC(C)n1cnnc1-c1cccc(NC(=O)c2cc3c(cc2F)CCCC(=O)N3)c1 | 0.32 |
| CC(CO)n1cnnc1-c1cccc(NC(=O)c2cc3c(cc2F)CCCC(=O)N3)n1 (centres undefined) | 0.108 |
| O=C1CCCc2cc(F)c(C(=O)Nc3cccc(-c4nncn4C4CC4)n3)cc2N1 | 1.17 |
| CC(C)n1cnnc1-c1cccc(NC(=O)c2cc3c(cc2F)CCCC(=O)N3C)c1 | 0.449 |
| CC(C)n1cnnc1-c1cccc(NC(=O)c2cc3c(cc2F)CCC(=O)N3)n1 | 1.26 |

Test: Oral bioavailability in Sprague-Dawley rat at 5 mg/kg measured upto 24 hrs by LC-MS/MS analysis
Type: ADME, organism-based
Conditions: in vivo

| Structure (SMILES) | bioavailability [%] |
| --- | --- |
| CC(C)n1cnnc1-c1cccc(NC(=O)c2cc3c(cc2F)CCC(=O)N3)c1 | 15.1 |
| CC(C)n1cnnc1-c1cccc(NC(=O)c2cc3c(cc2F)CCCC(=O)N3)c1 | 16 |
| O=C1CCCc2cc(F)c(C(=O)Nc3cccc(-c4nncn4C4CC4)n3)cc2N1 | 47 |
| CC(C)n1cnnc1-c1cccc(NC(=O)c2cc3c(cc2F)CCCC(=O)N3C)c1 | 33.2 |
| CC(C)n1cnnc1-c1cccc(NC(=O)c2cc3c(cc2F)CCC(=O)N3)n1 | 8.8 |

Test: Volume of distribution at steady state in Sprague-Dawley rat at 1 mg/kg, iv measured upto 24 hrs by LC-MS/MS analysis
Type: ADME, organism-based
Conditions: in vivo, read-out: Vdss

| Structure (SMILES) | Vd [L/kg] |
| --- | --- |
| CC(C)n1cnnc1-c1cccc(NC(=O)c2cc3c(cc2F)CCC(=O)N3)c1 | 3.41 |
| CC(C)n1cnnc1-c1cccc(NC(=O)c2cc3c(cc2F)CCCC(=O)N3)c1 | 2.19 |
| CC(CO)n1cnnc1-c1cccc(NC(=O)c2cc3c(cc2F)CCCC(=O)N3)n1 (centres undefined) | 3.01 |
| O=C1CCCc2cc(F)c(C(=O)Nc3cccc(-c4nncn4C4CC4)n3)cc2N1 | 0.7 |
| CC(C)n1cnnc1-c1cccc(NC(=O)c2cc3c(cc2F)CCCC(=O)N3C)c1 | 1.44 |
| CC(C)n1cnnc1-c1cccc(NC(=O)c2cc3c(cc2F)CCC(=O)N3)n1 | 0.56 |
